The text below walks through data of patent US20120029066A1, “USE OF FLAVONES FOR TREATING PSYCHIATRIC DISORDERS WITH SENSORIMOTOR GATING DEFICITS” (Taipei Medical University, priority 2010, published 2012).

In test [1] the test system is mice. As to the kind of experiment: Prepulse inhibition (PPI) of acoustic startle response, test compounds i.p. To be noted: for effect of psychotomimetic alone on pre-pulse inhibition of the startle response: control experiment, KET 30 mg/Kg i.p. or MeAmph 2 mg/Kg i.p.; for rescue of PPI disruption induced by methamphetamine: MeAmPh 2 mg/kg i.p., 71 dB-prepulse protocol, FIG. 7.

Test [2] concerns mice. As to the kind of experiment: PPI of startle response after bilateral intra-cerebella microinjection of test compounds. To be noted: for reinstating ketamine induced PPI disruption: FIG. 4, FIG. 5. It counts as in vivo. The procedure: In view of the finding in FIGS. 2 and 3, test compounds (e.g., hispidulin or Ro-154513) were microinjected into cerebella (e.g., i.cb microinjection) of the test animals to confirm the action site of hispidulin, by observing whether the MeAmph, KET, or MK-801-induced PPI disruption may be rescued.
Briefly, the mice were anaesthetized with pentobarbital (100 mg/kg i.p.) and placed in a stereotaxic frame. After shaving the hair, the skull surface was exposed by an incision. The head position of the mice was adjusted so that the bregma-lambda axis was horizontal. Then, two 24 gauge stainless-steel cannulae were implanted bilaterally into the lateral cerebellum (−6.4 mm caudal, ±1.5 mm lateral, −1.0 mm ventral from Bregma), according to stereotaxic coordinates (Paxions, 2001). Three stainless steel screws and dental cement were used to fix the cannulae on the top of the skull. The animal was allowed to fully recover after surgery for at least one week before the behavioral experiments were conducted.
On the day of experiment, test compounds were injected through the embedded cannula at 0.5 μl on each side of the cerebellum for 30 s and waited for 1 min to allow the injected compounds to diffuse into the cerebellum. PPI test were conducted as described in Example 2. After experiments, methylene blue was microinjected (0.5 μl/side) and animals were sacrificed and cerebellar slices were dissected to confirm the microinjection site. The data was discarded in the mice with incorrect microinjection sites.

A further test relates to Male ICR mice. As to the kind of experiment: Methamphetamine-induced hyperlocomotion, locomotor activity test. It counts as in vivo. To be noted: 10 mg/Kg i.p. after methamphetamine 2 mg/kg; test after 15 minutes; FIG. 1. Here is the method: Male ICR mice (25-35 g) were used in this study. They were bred, housed and maintained in the animal facility center with temperature- and humidity-controlled and 12:12 light dark cycle in National Taiwan University Medical College (NTUM) (Taiwan, R.O.C.). All animal experiments were carried out in accordance with the guidelines established by the Institutional Animal Care and Utilization Committee of the respective university.
Methamphetamine (MeAmPh, 2 mg/kg) was injected into mice to induce hyperlocomotion in the mice as a typical model for behavioral experiments.
After 15 minutes, the treated mice were then subjected to locomotor activity test.
Data herein are expressed as the mean±S.E.M and the n number indicates the number of the mice used. Statistical comparisons between the data in control and treatment conditions were analyzed by Student's t test. An effect was considered statistically significant if the p value was less than 0.05.

The mark [3] stands for this setting: 71 or 77 dB prepulse, 115 dB pulse.
Setting [4] is: 10 nmol i.cb., KET 30 mg/Kg i.p.

Regarding `CNC1(c2ccccc2Cl)CCCCC1=O` (centres unmarked) [KET, ketamine, reference compound], the “effect of psychotomimetic alone on pre-pulse inhibition of the startle response” value with mice [1] (setting [3]) is on record as “inhibited the pre-pulse inhibition”.
As to `CN[C@@H](C)Cc1ccccc1` [MeAmph, methamphetamine, reference compound], the “effect of psychotomimetic alone on pre-pulse inhibition of the startle response” value in the test on mice [1] (setting [3]) was “inhibited the pre-pulse inhibition”.
With `CCOC(=O)c1ncn2c1CN(C)C(=O)c1cc(N=[N+]=[N-])ccc1-2` [Ro 154513, reference compound], the “reinstating ketamine induced PPI disruption” value in the test with mice [2] (setting [4]) is “reinstated”.
In the case of `COc1ccc(-c2cc(=O)c3c(O)cc(O)cc3o2)cc1` [acacetin], the “decreasing MeAmph-induced hyperlocomotor activity” value in the test on Male ICR mice was “active”. The “rescue of PPI disruption induced by methamphetamine” value in the test on mice [1] (10 mg/Kg i.p.) was “significantly rescued”.
For the compound `NS(=O)(=O)c1cc(C(=O)O)c(NCc2ccco2)cc1Cl` [furosemide, reference compound], the “effect on the reinstated ketamine induced PPI disruption” value with mice [2] (furosemide 50 nmol i.cb., reinstatement by Ro-154513 or hispidulin 10 nmol i.cb., KET 30 mg/Kg i.p., FIG. 6) is reported as “antagonized”. The “effect on the reinstated methamphetamine induced PPI disruption” value in the test with mice [2] (furosemide 50 nmol i.cb., reinstatement by Ro-154513 or hispidulin 10 nmol i.cb., MeAmPh 2 mg/Kg i.p., FIG. 6) is given as “antagonized”.
For `COc1c(O)cc2oc(-c3ccc(O)cc3)cc(=O)c2c1O` [hispidulin], in the test on Male ICR mice, the “decreasing MeAmph-induced hyperlocomotor activity” value is “active”. Moreover, the “reinstating ketamine induced PPI disruption” value with mice [2] (setting [4]) was “effective in reinstating”. The “reinstating MK-801 induced PPI disruption” value with mice [2] (10 nmol i.cb., MK-801 0.3 mg/Kg i.p., FIG. 4) was “effective in reinstating”. For the same compound, the “reinstating methamphetamine induced PPI disruption” value in the test on mice [2] (10 nmol i.cb., methamphetamine 2 mg/Kg i.p., FIG. 4) was “effective in reinstating”. The “rescue of KET impaired PPI inhibition” value in the test with mice [1] (10 mg/Kg i.p., 15-minute before KET 30 mg/Kg i.p., 71 or 77 dB prepulse, 115 dB pulse, FIG. 2) is on record as “rescued”. For the same compound, the “rescue of MeAmph impaired PPI inhibition” value in the test on mice [1] (50 mg/Kg i.p., 15-minute before MeAmph 2 mg/Kg i.p., 71 or 77 dB prepulse, FIG. 3) is reported as “rescued”.
`O=c1cc(-c2ccc(O)c(O)c2)oc2cc(O)cc(O)c12` [luteolin]: the “rescue of PPI disruption induced by methamphetamine” value in the test on mice [1] (10 mg/Kg i.p.) was “significantly rescued”.
